Source: US20260216229A1, “PROGRAMMABLE DNA PROTEOLYSIS TARGET CHIMERAS AND METHODS OF THEIR USE” (ARIZONA BOARD OF REGENTS ON BEHALF OF ARIZONA STATE …, priority 2023, published 2026)

Molecular target: T1, CDK6 (Homo sapiens, UniProt Q00534)
T1 construct: Western blot analysis of CDK6 degradation in U251 cells treated with distance-based DNA-PROTACs; endogenous in cells; host or cells: U-251 MG (U251) glioblastoma cells
Test: Western blot of CDK6 degradation in U251 cells transfected with DNA-PROTACs
Format: cell-based
Details: for CDK6 protein degradation (Western blot): 14-hour treatment
Experimental: U-251 MG Glioblastoma Cell Line was grown in Dulbecco's Modified Eagles Medium (DMEM) containing 10% heat inactivated fetal bovine serum (FBS), streptomycin (5 μg/mL) and 5 U/mL penicillin 95 U/mL). All cell lines were maintained, and cell culture experiments were carried out in humidified incubators at 37° C. and 5% CO2 supplementation.
One day prior to DNA-PROTACs transfection, cells were propagated into 6 cm cell culture dishes containing appropriate complete growth medium. Prior to transfection, complete medium was replaced with transfection medium (5% FBS, no Penstrep). DNA-PROTACs transfection was performed using lipofectamine 3000 reagent according to the protocols provided by the manufacture. All transfections were carried out in 6-cm dishes with 3 mL of media and concentrations of DNA-PROTACs were calculated according to this volume (3 mL). Briefly, for 50 nM concentration, 5 μL from a 30 µM DNA-PROTACs stock and 12 μL p3000 reagent was added to a tube containing 125 μL of OPTIM-MEM and 8 μL of Lipofectamine 3000 reagent was added to a separate tube containing 125 μL of OPTIM-MEM. Two tubes were incubated for 5 minutes at room temperature and DNA-PROTACs containing OPTI-MEM was then slowly added to the second tube with lipo3000. The solution in the tube was mixed well by pipetting up and down several times. After incubating for 15-20 minutes at room temperature, 250 μL of DNA-PROTACs-lipofectamine complex was added drop wise onto cells containing the transfection medium. Transfection medium was mixed well before transferring the plate into the incubator. After appropriate time, cells were either harvested or replaced with fresh medium and incubated for desired time point prior to harvesting. For proteasome inhibition assay, 5 μM of MG-132 was incubated with cells for 2 h prior to transfection of DNA-PROTACs. Then, cells were incubated for another 12 h before lysing cells. Cell lysates were prepared by incubating cells in RIPA lysis buffer (25 mM Tris pH 7.6, 150 mM NaCl, 1% NP40, 1% deoxycholate, 0.1% SDS, 1× protease inhibitor cocktail from Roche and 1 mM of PMSF) on ice for 30 minutes and cell lysate was clarified by centrifugation at high speed (15 000 rpm) for 15 minutes. Clear supernatant was collected for further experiments.
Protein concentration in all the cell lysates were measured by BCA protein assay kit and equal amounts from each lysate were mixed with 4×loading dye and boiled for 5 minutes followed by 2 minutes centrifugation prior to loading into SDS-PAGE gel. Next proteins on the SDS-PAGE gel were transferred to a Nitrocellulose membrane by western blotting and the membrane was blocked with 5% milk in TBST (0.05% Tween 20) for 1 h. Primary antibodies (all Abcam antibodies were diluted 1:5000) were prepared in TBST with 2.5% milk and membranes were incubated overnight at 4° C. On the following day, membrane was washes for 15 minutes (Incubate for three times, 5 minutes each) and appropriate secondary antibodies (1:5000) were prepared in TBST and incubated with the membrane for 1 h at room temperature (RT). Membrane was washed for 15 minutes with TBST (incubate for three times, […]) prior to imaging.
The degradation efficiency of various DNA-PROTACs was evaluated through their transfection into U251 cells, conducted simultaneously to ensure uniform experimental conditions. A double-stranded DNA sequence without any ligand was utilized as a negative control, providing a baseline for comparison. Following a 14-hour treatment period, a duration selected based on preliminary time-course studies, the cells were harvested using trypsin digestion. The lysates obtained were then subjected to SDS-PAGE, followed by Western blot analysis to assess protein degradation. […] This finding highlights the efficacy of DNA-PROTAC V02 in targeting and reducing CDK6 protein levels. In comparison, DNA-PROTAC Versions 03 and 04 also facilitated protein degradation, albeit with varying degrees of efficiency. […]

T1 sequence (Q00534 whole entry): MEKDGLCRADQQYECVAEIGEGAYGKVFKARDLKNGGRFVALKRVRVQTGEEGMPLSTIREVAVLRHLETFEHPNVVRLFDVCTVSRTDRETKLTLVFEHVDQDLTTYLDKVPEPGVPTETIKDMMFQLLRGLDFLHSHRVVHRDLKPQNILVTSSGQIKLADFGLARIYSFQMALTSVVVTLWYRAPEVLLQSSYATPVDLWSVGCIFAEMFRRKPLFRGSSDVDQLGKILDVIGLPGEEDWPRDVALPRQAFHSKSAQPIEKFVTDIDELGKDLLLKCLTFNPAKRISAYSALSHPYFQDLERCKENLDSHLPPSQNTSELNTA

Compound: CC(=O)c1c(C)c2cnc(Nc3ccc(N4CCN(CCOCCOCCOCCNC(=O)COc5cccc6c5C(=O)N(C5CCC(=O)NC5=O)C6=O)CC4)cn3)nc2n(C2CCCC2)c1=O (centres unmarked) [BSJ-03-123, reference compound]
- CDK6 protein levels (Western blot) (160 nM treatment): discernible reduction in protein levels

Compound: A-minor-00: angular-series DNA duplex of E3-i strand SEQ ID NO 3 and POI-i strand SEQ ID NO 5 (chain 1 ACTCCATCTANTTCTACGCCA; chain 2 TGGCGTAGAATAGANTGGAGT; pomalidomide and POI ligand conjugated; modified_base 1 OTHER; Nucleotide with phosphorothioate linkage; modified_base 2 OTHER; modified_base 3 OTHER; misc_difference 11 E3 ligase attached to 3-Dimethoxytrityloxy-2-(3-(fluorenylmethoxycarbonylamino)propanamido)propyl-1-O-(2-cyanoethyl)-(N,N-diisopropyl)-phosphoramidite modified adenosine, cytidine, thymi; m)
- CDK6 protein degradation (Western blot) (concentration not given): marginal CDK6 degradation

Compound: A-minor-01: angular-series DNA duplex of E3-i strand SEQ ID NO 3 and POI-i strand SEQ ID NO 21 (chain 1 ACTCCATCTANTTCTACGCCA; chain 2 TGGCGTAGAATAGNATGGAGT; E3 and POI ligands conjugated; modified_base 1 OTHER; Nucleotide with phosphorothioate linkage; modified_base 2 OTHER; modified_base 3 OTHER; misc_difference 11 E3 ligase attached to 3-Dimethoxytrityloxy-2-(3-(fluorenylmethoxycarbonylamino)propanamido)propyl-1-O-(2-cyanoethyl)-(N,N-diisopropyl)-phosphoramidite modified adenosine, cytidine, thymi; m)
- CDK6 protein degradation (Western blot) (100 nM): substantial degradation

Compound: A-minor-02: angular-series DNA duplex of E3-i strand SEQ ID NO 3 and POI-i strand SEQ ID NO 22 (chain 1 ACTCCATCTANTTCTACGCCA; chain 2 TGGCGTAGAATANGATGGAGT; E3 and POI ligands conjugated; modified_base 1 OTHER; Nucleotide with phosphorothioate linkage; modified_base 2 OTHER; modified_base 3 OTHER; misc_difference 11 E3 ligase attached to 3-Dimethoxytrityloxy-2-(3-(fluorenylmethoxycarbonylamino)propanamido)propyl-1-O-(2-cyanoethyl)-(N,N-diisopropyl)-phosphoramidite modified adenosine, cytidine, thymi; m)
- CDK6 protein degradation (Western blot) (100 nM): substantial degradation

Compound: A-minor-03: angular-series DNA duplex of E3-i strand SEQ ID NO 3 and POI-i strand SEQ ID NO 23 (chain 1 ACTCCATCTANTTCTACGCCA; chain 2 TGGCGTAGAATNAGATGGAGT; E3 and POI ligands conjugated; modified_base 1 OTHER; Nucleotide with phosphorothioate linkage; modified_base 2 OTHER; modified_base 3 OTHER; misc_difference 11 E3 ligase attached to 3-Dimethoxytrityloxy-2-(3-(fluorenylmethoxycarbonylamino)propanamido)propyl-1-O-(2-cyanoethyl)-(N,N-diisopropyl)-phosphoramidite modified adenosine, cytidine, thymi; m)
- concentration at which significant CDK6 degradation begins (14 hours, angular series): 20 nM

Compound: Version 03: DNA duplex of E3-i strand SEQ ID NO 3 and POI-i strand SEQ ID NO 5 (chain 1 ACTCCATCTANTTCTACGCCA; chain 2 TGGCGTAGAATAGANTGGAGT; E3 and POI ligands conjugated; modified_base 1 OTHER; Nucleotide with phosphorothioate linkage; modified_base 2 OTHER; modified_base 3 OTHER; misc_difference 11 E3 ligase attached to 3-Dimethoxytrityloxy-2-(3-(fluorenylmethoxycarbonylamino)propanamido)propyl-1-O-(2-cyanoethyl)-(N,N-diisopropyl)-phosphoramidite modified adenosine, cytidine, thymi; m)
- CDK6 protein degradation (Western blot) (100 nM): substantially reduce CDK6 protein levels

Compound: Version 04: DNA duplex of E3-i strand SEQ ID NO 3 and POI-i strand SEQ ID NO 6 (chain 1 ACTCCATCTANTTCTACGCCA; chain 2 TGGCNGTAGAATAGATGGAGT; E3 and POI ligands conjugated; modified_base 1 OTHER; Nucleotide with phosphorothioate linkage; modified_base 2 OTHER; modified_base 3 OTHER; misc_difference 11 E3 ligase attached to 3-Dimethoxytrityloxy-2-(3-(fluorenylmethoxycarbonylamino)propanamido)propyl-1-O-(2-cyanoethyl)-(N,N-diisopropyl)-phosphoramidite modified adenosine, cytidine, thymi; m)
- CDK6 protein degradation (Western blot) (50 nM): more pronounced reduction in protein levels

Compound: Version 05: DNA duplex of E3-i strand SEQ ID NO 18 and POI-i strand SEQ ID NO 20; largest ligand distance of approximately 60.2 Å (chain 1 ANCTCCATCTATTCTACGCCA; chain 2 TNGGCGTAGAATAGATGGAGT; E3 and POI ligands conjugated; modified_base 1 OTHER; Nucleotide with phosphorothioate linkage; misc_difference 2 E3 ligase attached to 3-Dimethoxytrityloxy-2-(3-(fluorenylmethoxycarbonylamino)propanamido)propyl-1-O-(2-cyanoethyl)-(N,N-diisopropyl)-phosphoramidite modified adenosine, cytidine, thymidine, guanosine, unknown or other nucleotide with phosphorothioate linkage; modified_base 3 OTHER; Nucleotide with phosphorothioate; misc_difference 2 Protein of interest attached to 3-Dimethoxytrityloxy-2-(3-(fluorenylmethoxycarbonylamino)propanamido)propyl-1-O-()
- CDK6 protein degradation (Western blot) (50 nM and 100 nM, vs ligand-free dsDNA control): did not exhibit any discernible protein degradation
